For assay [1], the target named is T1, IRAK4 (Homo sapiens, UniProt Q9NWZ3).
T1 sequence (Q9NWZ3 1-460): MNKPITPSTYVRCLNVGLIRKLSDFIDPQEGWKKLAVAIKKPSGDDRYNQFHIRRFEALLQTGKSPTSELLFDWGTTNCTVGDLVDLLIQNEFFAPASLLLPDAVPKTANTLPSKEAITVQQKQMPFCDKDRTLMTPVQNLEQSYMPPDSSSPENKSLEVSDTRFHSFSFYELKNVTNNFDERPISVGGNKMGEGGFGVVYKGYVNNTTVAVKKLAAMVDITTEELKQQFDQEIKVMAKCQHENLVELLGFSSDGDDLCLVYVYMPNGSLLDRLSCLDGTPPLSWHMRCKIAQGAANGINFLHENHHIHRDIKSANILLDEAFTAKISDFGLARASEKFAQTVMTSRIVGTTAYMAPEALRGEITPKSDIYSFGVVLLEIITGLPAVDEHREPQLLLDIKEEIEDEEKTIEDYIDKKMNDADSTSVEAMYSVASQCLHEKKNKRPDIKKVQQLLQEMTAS
The assay can be described thus: IRAK4 degradation in OCI-LY10 (MSD, Meso Scale Discovery). The format is cell-based. More on the design: endogenous in cells; host or cells: OCI-LY10. The note with it: OCI-LY10 cells, 24 h. The protocol: Degradation of IRAK4 in OCI-LY10 was quantitatively measured using Meso Scale Discovery technology. OCI-LY10 cells were seeded in 96-well plates (Corning 3799) with a density of 300,000 cells per well in 100 μL fresh media. Compounds were then added to the assay plates with a final top concentration of 1 to 10 μM in a 1:3 dilution series with total of 8 doses. The assay plates were then incubated for 4 to 24 hours at 37° C. under 5% CO2. The assay plates were then centrifuged for 5 minutes and the cell pellets were treated with 100 μL/well RIPA lysis buffer (Boston BioProducts BP-115D) with proteinase inhibitors. To prepare MSD assay plates (Meso Scale Discovery Catalog number L15XA-3), the plates were coated with 2 ug/mL capture antibody (mouse Anti-IRAK4 antibody [2H9], ab119942) in PBS, at 40 μL/well. The plates were then incubated overnight at […], washed 3 times with 150 μL/well TBST buffer (Cell Signaling Technology, Catalog number 9997S) and blocked with 150 μL/well blocking buffer (Meso Scale Discovery Catalog number R^93BA-4). Cell lysates were then added to MSD assay plates and the plates were incubated at room temperature for 1 hour. The plates were then washed 3 times with 150 μL/well TBST buffer and 25 μL/well primary detection antibody (rabbit Anti-IRAK4 antibody [Y279], from Abcam. Catalog number ab32511, 1 μg/mL). The assay plates were then incubated at room temperature for 1 hour, washed 3 times with 150 μL/well TBST buffer and 25 μL/well secondary detection antibody, SULFO-TAG anti-rabbit antibody were added (anti-rabbit antibody from Meso Scale Discovery, Catalog number R^32AB-1, 1 μg/mL). The assay plates were then incubated at room temperature for 1 hour, washed 3 times with 150 μL/well TBST buffer, and 150 μL/well MSD reading buffer (Meso Scale Discovery catalog number R^92TC-2) was added. The plates were then analyzed by a MSD reader (Meso Scale Discovery, Model Quick Plex SQ 120). The data was then analyzed by software Prism 7.0 from GraphPad and the dose-depended IRAK4 degradation were fit using a three-parameter logistic equation to calculate DC50.
(§1) IRAK4 MSD degradation in OCI-LY10 results at 4 and 24 hrs and hPBMC at 20 hrs for compounds of the invention are presented in Table 3. The letter codes for IRAK4 DC50 include: A (<0.1 μM), B (0.1-1.0 μM), C(>1.0-10.0 μM), D (>10.0 μM or not determined).

Assay [2] concerns the target T1, IRAK4. The assay can be described thus: hPBMC IRAK4 degradation flow assay (monocytes). It counts as cell-based. On the set-up: endogenous in cells; host or cells: human PBMCs (monocytes, CD14 positive gate). Conditions: CD14 positive monocytes, 20 h, read-out: hPBMC monocyte DC50 at 20 h. As to the method: In the hPBMC IRAK4 degradation flow assay, frozen PBMCs were thawed into RPMI with 10% FBS and allowed to recover. On the same day as thawed, PBMCs were plated in 96 well plate, 90 μL per well. Compound plates were prepared and a 10 point, 5-fold dilution was performed with a final DMSO concentration of 0.1%. Compound 10 μL per well was added, sealed and incubated at 37° C., 5% CO2 for 20 hours (for 4 hour treatment, compounds were prepared and added the following day). Following the treatment incubation period (day 1), 1.6% PFA was added to PBMC plate and placed on plate shaker for 30 seconds and incubated for 10 mins at room temperature. Cells were spun down and washed two times with PBS/0.5% BSA, aspirated to pellet and placed into −80° C. freezer until further processing for flow. On the flow run day, PBMC plates were thawed and samples were transferred to PCR plates. The pre-perm staining cocktail (CD3 Ax488/CD8 BUV805/CD14 BUV395/CD16/56 BV711/CD19 BV785) was added to samples and incubated for 30 minutes at room temperature. Samples were washed two times and permeabilized with methanol for 10 minutes at 4° C. Samples were washed two times and the post-perm staining cocktail (CD4 PE/IRAK4 Ax647 BD #560315) was added and incubated for 30 minutes at room temperature. Samples were washed two times with PBS/BSA and run on a BD LSRFortessa. Mononuclear cells are gated by SSCH/FSCH and single cells. Monocytes are then gated through CD14 positive gate and lymphocytes are gated through CD14 negative gate. To determine absolute DC50 and max degradation values, MFI values were normalized to DMSO max and 20 hour 10 µM min control. Twenty hour dose curves were calculated using a 4 parameter logistic regression curve fit, no constraints (Top doses were removed if hook effects were observed and the bottom was constrained to 0).
as §1

The structures appear in SMILES notation.

What is called DC50 is the midpoint of the concentration-degradation curve. In the case of `O=C(O)Cn1cc(NC(=O)c2cc(CCCCCCNC[C@H]3CC[C@H](n4cc(NC(=O)c5cnn6ccc(N7C[C@H]8C[C@@H]7CO8)nc56)c(C(F)F)n4)CC3)cc(-c3cccnc3)c2)ccc1=O` [Compound I-93], the half-maximal degradation concentration (DC50) in assay [1] and in assay [2] was more than 10 µM throughout.

In the case of `O=C(O)Cn1cc(NC(=O)c2cccc(-c3cncc(CCCNC[C@H]4CC[C@H](n5cc(NC(=O)c6cnn7ccc(N8C[C@H]9C[C@@H]8CO9)nc67)c(C(F)F)n5)CC4)c3)c2)ccc1=O` [Compound I-87], the DC50 in assay [1] and in assay [2] was more than 10 µM throughout.

Regarding `CCOC(=O)Cn1cc(NC(=O)[C@H]2CCCN(c3cncc(CCCCCCNC[C@H]4CC[C@H](n5cc6cc(NC(=O)c7cccc(C(F)(F)F)n7)c(OC)cc6n5)CC4)c3)C2)ccc1=O` [Compound I-42], the DC50 was more than 10 µM in assay [1] and less than 0.1 µM in assay [2].

Turning to `CC(C)(O)c1cc2nn([C@H]3CC[C@H](CNCCCCCCCCCc4ccc5c(-c6cccc(C(=O)Nc7ccc(=O)n(CC(=O)O)c7)c6)cncc5c4)CC3)cc2cc1NC(=O)c1cccc(C(F)(F)F)n1` [Compound I-53], the DC50 in assay [1] and in assay [2] was more than 10 µM in each case.

`COC(=O)Cn1cc(NC(=O)c2cccc(-c3cncc4c(CCCCCCNC[C@H]5CC[C@H](n6cc7cc(NC(=O)c8cccc(C(F)(F)F)n8)c(C(C)(C)O)cc7n6)CC5)cccc34)c2)ccc1=O` [Compound I-56]: the 50% degradation concentration (DC50) in assay [1] and in assay [2] was more than 10 µM in each case.

As for `COc1cc2nn([C@H]3CC[C@H](CNCCNc4cncc(N5CCC[C@H](C(=O)Nc6ccc(=O)n(CC(=O)O)c6)C5)c4)CC3)cc2cc1NC(=O)c1cccc(C(F)(F)F)n1` [Compound I-7], the half-maximal degradation concentration (DC50) in assay [1] and in assay [2] was more than 10 µM in each case.

In the case of `CCOC(=O)Cn1cc(NC(=O)[C@H]2CCCN(c3cncc(NCCNC[C@H]4CC[C@H](n5cc(NC(=O)c6cnn7ccc(N8C[C@H]9C[C@@H]8CO9)nc67)c(C(F)F)n5)CC4)c3)C2)ccc1=O` [Compound I-16], the DC50 in assay [1] and in assay [2] was more than 10 µM each time.

With `CCOC(=O)Cn1cc(NC(=O)[C@H]2CCCN(c3cncc(N4CCC(CN(C)C[C@H]5CC[C@H](n6cc(NC(=O)c7cnn8ccc(N9C[C@H]%10C[C@@H]9CO%10)nc78)c(C(F)F)n6)CC5)CC4)c3)C2)ccc1=O` [Compound I-34], the 50% degradation concentration (DC50) in assay [1] and in assay [2] was more than 10 µM each time.

For `CCOC(=O)Cn1cc(NC(=O)[C@H]2CCCN(c3cncc(C#CCOC4CCN(C[C@H]5CC[C@H](n6cc7cc(NC(=O)c8cccc(C(F)(F)F)n8)c(OC)cc7n6)CC5)CC4)c3)C2)ccc1=O` [Compound I-22], the figures for the 50% degradation concentration (DC50) in assay [1] and in assay [2] were more than 10 µM and less than 0.1 µM, respectively.

`CCOC(=O)Cn1cc(NC(=O)c2cc(CCCNC[C@H]3CC[C@H](n4cc5cc(NC(=O)c6cccc(C(F)(F)F)n6)c(C(C)(C)O)cc5n4)CC3)cc(-c3cccnc3)c2)ccc1=O` [Compound I-82]: the DC50 in assay [1] and in assay [2] was more than 10 µM in each case.

In the case of `CCOC(=O)Cn1cc(NC(=O)[C@H]2CCCN(c3cncc(CCNC[C@H]4CC[C@H](n5cc(NC(=O)c6cnn7ccc(N8C[C@H]9C[C@@H]8CO9)nc67)c(C(F)F)n5)CC4)c3)C2)ccc1=O` [Compound I-36], the 50% degradation concentration (DC50) in assay [1] was more than 10 µM; in assay [2], 1 to 10 µM.

Regarding `CC(C)(O)c1cc2nn([C@H]3CC[C@H](CNCCCc4cc(C(=O)Nc5ccc(=O)n(CC(=O)O)c5)cc(-c5cccnc5)c4)CC3)cc2cc1NC(=O)c1cccc(C(F)(F)F)n1` [Compound I-80], the DC50 in assay [1] and in assay [2] was more than 10 µM in each case.

Take `CCOC(=O)Cn1cc(NC(=O)c2cccc3c2ccn3CCCNC[C@H]2CC[C@H](n3cc4cc(NC(=O)c5cccc(C(F)(F)F)n5)c(C(C)(C)O)cc4n3)CC2)ccc1=O` [Compound I-79]: the DC50 in assay [1] and in assay [2] was more than 10 µM in each case.

On to `COc1cc2nn([C@H]3CC[C@H](CNCCOCCOCCNc4cncc(N5CCC[C@H](C(=O)Nc6ccc(=O)n(CC(=O)O)c6)C5)c4)CC3)cc2cc1NC(=O)c1cccc(C(F)(F)F)n1` [Compound I-1], for which the DC50 in assay [1] was more than 10 µM; in assay [2] it was 1 to 10 µM.

In the case of `O=C(O)Cn1cc(NC(=O)[C@H]2CCCN(c3cncc(OCCOCCOCCOCCOCCNC[C@H]4CC[C@H](n5cc(NC(=O)c6cnn7ccc(N8C[C@H]9C[C@@H]8CO9)nc67)c(C(F)F)n5)CC4)c3)C2)ccc1=O` [Compound I-37], the 50% degradation concentration (DC50) in assay [1] was more than 10 µM; in assay [2] it was 1 to 10 µM.

With `CC(C)(O)c1cc2nn([C@H]3CC[C@H](CNCCCCCCCCCc4cncc(-c5cccc(C(=O)Nc6ccc(=O)n(CC(=O)O)c6)c5)c4)CC3)cc2cc1NC(=O)c1cccc(C(F)(F)F)n1` [Compound I-84], the DC50 was more than 10 µM in assay [1] and 1 to 10 µM in assay [2].

Turning to `COC(=O)Cn1cc(NC(=O)c2cccc(-c3cncc4cc(CCCCCCNC[C@H]5CC[C@H](n6cc7cc(NC(=O)c8cccc(C(F)(F)F)n8)c(C(C)(C)O)cc7n6)CC5)ccc34)c2)ccc1=O` [Compound I-57], the 50% degradation concentration (DC50) in assay [1] and in assay [2] was 1 to 10 µM each time.

With `O=C(O)Cn1cc(NC(=O)[C@H]2CCCN(c3cncc(NCCNC[C@H]4CC[C@H](n5cc(NC(=O)c6cnn7ccc(N8C[C@H]9C[C@@H]8CO9)nc67)c(C(F)F)n5)CC4)c3)C2)ccc1=O` [Compound I-8], the half-maximal degradation concentration (DC50) in assay [1] and in assay [2] was more than 10 µM each time.

For the compound `CCOC(=O)Cn1cc(NC(=O)[C@H]2CCCN(c3cncc(NCCOCCOCCOCCOCCNC[C@H]4CC[C@H](n5cc(NC(=O)c6cnn7ccc(N8C[C@H]9C[C@@H]8CO9)nc67)c(C(F)F)n5)CC4)c3)C2)ccc1=O` [Compound I-6], the DC50 in assay [1] and in assay [2] was more than 10 µM each time.

`CCOC(=O)Cn1cc(NC(=O)c2cc(CCCCCCCCCNC[C@H]3CC[C@H](n4cc5cc(NC(=O)c6cccc(C(F)(F)F)n6)c(C(C)(C)O)cc5n4)CC3)cc(-c3cccnc3)c2)ccc1=O` [Compound I-72]: the DC50 in assay [1] and in assay [2] was 1 to 10 µM throughout.

For the compound `CCOC(=O)Cn1cc(NC(=O)c2cccc(-c3cncc(CCCCCCNC[C@H]4CC[C@H](n5cc6cc(NC(=O)c7cccc(C(F)(F)F)n7)c(C(C)(C)O)cc6n5)CC4)c3)c2)ccc1=O` [Compound I-97], the DC50 in assay [1] was 1 to 10 µM; in assay [2], more than 10 µM.
